Consider 22 compounds from US20190374533A1, “COMPOUNDS AND METHODS FOR INHIBITING NHE-MEDIATED ANTIPORT IN THE TREATMENT OF DISORDERS ASSOCIATED WITH FLUID RETENTION OR SALT OVERLOAD AND GASTROINTESTINAL TRACT DISORDERS” (Ardelyx, Inc., priority 2008, published 2019).

Data set [1] can be described thus: Parallel artificial membrane permeability assay (PAMPA). The note with it: pH 7.4. On the technique in general: In PAMPA a lipid-coated filter parts donor from acceptor wells.
The target in a further data set is T1, rat NHE-3 (Rattus norvegicus, UniProt P26433).
T1 construct: expressed in transfected cells; host or cells: Opossum kidney (OK) cells (ATCC), electroporated
T1 sequence (P26433 29-831): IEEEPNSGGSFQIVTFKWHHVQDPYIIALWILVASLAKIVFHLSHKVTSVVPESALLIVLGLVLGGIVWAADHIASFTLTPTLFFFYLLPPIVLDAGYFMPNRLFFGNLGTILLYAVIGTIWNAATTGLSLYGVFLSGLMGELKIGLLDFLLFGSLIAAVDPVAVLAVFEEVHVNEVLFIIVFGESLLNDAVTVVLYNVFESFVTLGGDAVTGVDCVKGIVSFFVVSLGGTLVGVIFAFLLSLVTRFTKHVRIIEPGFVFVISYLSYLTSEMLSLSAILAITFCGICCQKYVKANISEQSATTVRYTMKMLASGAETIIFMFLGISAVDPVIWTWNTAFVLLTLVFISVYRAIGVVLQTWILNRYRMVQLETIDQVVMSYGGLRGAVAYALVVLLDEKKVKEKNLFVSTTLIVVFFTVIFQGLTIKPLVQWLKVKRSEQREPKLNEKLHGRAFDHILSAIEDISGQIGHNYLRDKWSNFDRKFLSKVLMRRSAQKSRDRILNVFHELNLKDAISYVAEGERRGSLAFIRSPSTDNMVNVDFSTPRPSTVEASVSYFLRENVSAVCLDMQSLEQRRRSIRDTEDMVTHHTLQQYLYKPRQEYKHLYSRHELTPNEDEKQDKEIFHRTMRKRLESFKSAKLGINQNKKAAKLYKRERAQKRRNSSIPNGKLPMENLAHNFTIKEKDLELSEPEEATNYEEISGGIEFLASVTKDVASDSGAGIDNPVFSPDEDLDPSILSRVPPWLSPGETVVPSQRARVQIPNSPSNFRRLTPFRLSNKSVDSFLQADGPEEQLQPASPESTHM
Kind of data set: Cell-based assay of NHE-3 activity (Pharmacological Test Example 1). The gist of the method:
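OK cells electroporated with rat NHE-3, loaded with 5 uM BCECF-AM in NH4Cl-HEPES (pH 7.4) for 30 min at room temperature, then acid-loaded 10 min in Na+-free choline buffer. Na+-dependent H+ antiport read as initial rate of pH-dye change; pIC50 from 3-6 replicate averages.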

Data set [2] in a line: Determination of compound Cmax and AUC. The format is in vivo. The note with it: rat; Sprague-Dawley rats, oral gavage, serum 0.5-4 h; actual oral dose (mg/kg) given. The protocol:
Sprague-Dawley rats were orally gavaged with test article (2.5 mg/kg) and serum was collected at 0.5, 1, 2 and 4 h. Serum samples were treated with acetonitrile, precipitated proteins removed by centrifugation and supernatants analyzed by LC/MS/MS and compared against a standard curve to determine compound concentration. All compounds were orally dosed at the dosage shown, and pharmacokinetic parameters determined as described in the text.

Setting [3] is: OK cells expressing rat NHE-3, 0-30 uM test compound, 5 uM EIPA.

Molecules are shown by their SMILES. Where two headings read alike, the source gives them in different places.

In turn, `C/C(=C\c1cc(F)c(Oc2ccc(S(=O)(=O)NC(CC(=O)O)C(=O)O)cc2)c(F)c1)C(=O)N=C(N)N` (stereo not shown) [Example 59, (E)-2-(4-(4-(3-(diaminomethyleneamino)-2-methyl-3-oxoprop-1-enyl)-2,6-difluorophenoxy)phenylsulfonamido)succinic acid] had a Papp A→B at 3 h, 20 uM in data set [1] of 0.1 ×10⁻⁶ cm/s.
On the same count and under the same terms, the value for `CN1Cc2c(Cl)cc(Cl)cc2C(c2ccc(S(=O)(=O)NCCCCCCCCCCCCNS(=O)(=O)c3ccc(C4CN(C)Cc5c(Cl)cc(Cl)cc54)cc3)cc2)C1` (stereo not shown) [Example 23, N,N′-(dodecane-1,12-diyl)bis(4-(6,8-dichloro-2-methyl-1,2,3,4-tetrahydroisoquinolin-4-yl)benzenesulfonamide)] was less than 0.04 ×10⁻⁶ cm/s; that for `CN1Cc2c(Cl)cc(Cl)cc2C(c2ccc(S(=O)(=O)NCc3ccc(CNS(=O)(=O)c4ccc(C5CN(C)Cc6c(Cl)cc(Cl)cc65)cc4)cc3)cc2)C1` (stereo not shown) [Example 26, N,N′-(1,4-phenylenebis(methylene))bis(4-(6,8-dichloro-2-methyl-1,2,3,4-tetrahydroisoquinolin-4-yl)benzenesulfonamide)] was less than 0.02 ×10⁻⁶ cm/s; that for `CN1Cc2c(Cl)cc(Cl)cc2C(c2cccc(S(=O)(=O)N(CC(=O)O)CP(=O)(O)O)c2)C1` (stereo not shown) [Example 8, 2-(3-(6,8-dichloro-2-methyl-1,2,3,4-tetrahydroisoquinolin-4-yl)-N-(phosphonomethyl)phenylsulfonamido)acetic acid] was 0.2 ×10⁻⁶ cm/s.
Still for that read-out and setting: the value for `NC(N)=Nc1nc(-c2ccc(N3CCN(CC(=O)O)CC3)cc2)c2cc(Cl)ccc2n1` [Example 61, 2-(4-(4-(6-chloro-2-(diaminomethyleneamino)quinazolin-4-yl)phenyl)piperazin-1-yl)acetic acid] was 0.1 ×10⁻⁶ cm/s; that for `CN1Cc2c(Cl)cc(Cl)cc2C(c2ccc(S(=O)(=O)N(CCC(=O)O)CCC(=O)O)cc2)C1` (stereo not shown) [Example 15, 3,3′-(4-(6,8-dichloro-2-methyl-1,2,3,4-tetrahydroisoquinolin-4-yl)phenylsulfonylazanediyl)dipropanoic acid] was 0.05 ×10⁻⁶ cm/s.
Still for that read-out and setting: next, `C/C(=C\c1cc(F)c(Oc2ccc(S(=O)(=O)N(CC(=O)O)CP(=O)(O)O)cc2)c(F)c1)C(=O)N=C(N)N` [Example 57, (E)-2-(4-(4-(3-(diaminomethyleneamino)-2-methyl-3-oxoprop-1-enyl)-2,6-difluorophenoxy)-N-(phosphonomethyl)phenylsulfonamido)acetic acid]: 1.65 ×10⁻⁶ cm/s; `CN1Cc2c(Cl)cc(Cl)cc2C(c2cccc(NC(=O)N[C@@H](CC(=O)O)C(=O)O)c2)C1` (stereo partly drawn) [Example 35, (2S)-2-(3-(3-(6,8-dichloro-2-methyl-1,2,3,4-tetrahydroisoquinolin-4-yl)phenyl)ureido)succinic acid]: 0.17 ×10⁻⁶ cm/s.
On to `C/C(=C\c1cc(F)c(Oc2ccc(S(=O)(=O)NCCOCCOCCOCCNS(=O)(=O)c3ccc(Oc4c(F)cc(/C=C(\C)C(=O)N=C(N)N)cc4F)cc3)cc2)c(F)c1)C(=O)N=C(N)N` [Example 44, N,N′-(2,2′-(2,2′-oxybis(ethane-2,1-diyl)bis(oxy))bis(ethane-2,1-diyl))bis[(E)-N-(diaminomethylene)-3-(3,5-difluoro-4-(4-sulfamoylphenoxy)phenyl)-2-methylacrylamide]], for which the apical-to-basolateral permeability (Papp A→B) at 3 h, 20 uM in data set [1] was 0.1 ×10⁻⁶ cm/s.
Same read-out and setting: the value for `CN1Cc2c(Cl)cc(Cl)cc2C(c2ccc(S(=O)(=O)NCCN(CCNS(=O)(=O)c3ccc(C4CN(C)Cc5c(Cl)cc(Cl)cc54)cc3)CCNS(=O)(=O)c3ccc(C4CN(C)Cc5c(Cl)cc(Cl)cc54)cc3)cc2)C1` (stereo not shown) [Example 24, N,N′,N″-(2,2′,2″-nitrilotris(ethane-2,1-diyl))tris(4-(6,8-dichloro-2-methyl-1,2,3,4-tetrahydroisoquinolin-4-yl)benzenesulfonamide)] was 0.03 ×10⁻⁶ cm/s.
The same measure, in the same setting: next, `CN1Cc2c(Cl)cc(Cl)cc2C(c2ccc(NC(=O)NCP(=O)(O)O)cc2)C1` (stereo not shown) [Example 38, (3-(4-(6,8-dichloro-2-methyl-1,2,3,4-tetrahydroisoquinolin-4-yl)phenyl)ureido)methylphosphonic acid]: 0.1 ×10⁻⁶ cm/s.
Still for that read-out and setting: next, `CN1Cc2c(Cl)cc(Cl)cc2C(c2cccc(NC(=O)N[C@@H](CCC(=O)O)C(=O)O)c2)C1` (stereo partly drawn) [Example 37, (2S)-2-(3-(3-(6,8-dichloro-2-methyl-1,2,3,4-tetrahydroisoquinolin-4-yl)phenyl)ureido)pentanedioic acid]: 0.1 ×10⁻⁶ cm/s.
`CN1Cc2c(Cl)cc(Cl)cc2C(c2ccc(S(=O)(=O)Nc3ccc(CP(=O)(O)O)cc3)cc2)C1` (stereo not shown) [Example 13, (4-(4-(6,8-dichloro-2-methyl-1,2,3,4-tetrahydroisoquinolin-4-yl)phenylsulfonamido)phenyl)methylphosphonic acid] had a Papp A→B at 3 h, 20 uM in data set [1] of 0.3 ×10⁻⁶ cm/s.
Still for that read-out and setting: next, `C/C(=C\c1cc(F)c(Oc2ccc(S(=O)(=O)NCCOCCOCCOCCn3cc(CO)nn3)cc2)c(F)c1)C(=O)N=C(N)N` [Example 48, (E)-N-(diaminomethylene)-3-(3,5-difluoro-4-(4-(N-(2-(2-(2-(2-(4-(hydroxymethyl)-1H-1,2,3-triazol-1-yl)ethoxy)ethoxy)ethoxy)ethyl)sulfamoyl)phenoxy)phenyl)-2-methylacrylamide]: 0.9 ×10⁻⁶ cm/s; `CN1Cc2c(Cl)cc(Cl)cc2C(c2cccc(S(=O)(=O)NCCN(CCNS(=O)(=O)c3cccc(C4CN(C)Cc5c(Cl)cc(Cl)cc54)c3)CCNS(=O)(=O)c3cccc(C4CN(C)Cc5c(Cl)cc(Cl)cc54)c3)c2)C1` (stereo not shown) [Example 16, N,N′,N″-(2,2′,2″-nitrilotris(ethane-2,1-diyl))tris(3-(6,8-dichloro-2-methyl-1,2,3,4-tetrahydroisoquinolin-4-yl)benzenesulfonamide)]: less than 0.02 ×10⁻⁶ cm/s; `NC(N)=Nc1nc(-c2cccc(N3CCN(CCCC(=O)O)CC3)c2)c2cc(Cl)ccc2n1` [Example 70, 4-(4-(3-(6-chloro-2-(diaminomethyleneamino)quinazolin-4-yl)phenyl)piperazin-1-yl)butanoic acid]: 0.4 ×10⁻⁶ cm/s.
`C/C(=C\c1cc(F)c(Oc2ccc(S(=O)(=O)NCCOCCOCCOCCNC(=O)[C@H](O)[C@@H](O)C(=O)NCCOCCOCCOCCNS(=O)(=O)c3ccc(Oc4c(F)cc(/C=C(\C)C(=O)N=C(N)N)cc4F)cc3)cc2)c(F)c1)C(=O)N=C(N)N` [Example 212, (2R,3R)—N1,N4-bis(2-(2-(2-(2-(4-(4-((E)-3-(diaminomethyleneamino)-2-methyl-3-oxoprop-1-enyl)-2,6-difluorophenoxy)phenylsulfonamido)ethoxy)ethoxy)ethoxy)ethyl)-2,3-dihydroxysuccinamide]: the IC50 at rat NHE-3 (OK cells expressing rat NHE-3, 0-30 uM test compound, 5 uM EIPA, read-out: rat NHE-3 Average pIC50 (converted)) was less than 100 nM. In data set [2], this compound displayed an AUC of less than 4.4 ng·h/mL and a Cmax of less than 2.7 ng/mL.
Turning to `CN1Cc2c(Cl)cc(Cl)cc2C(c2cccc(S(=O)(=O)NCCOCCOCCOCCNC(=O)c3ccccc3C(=O)NCCOCCOCCOCCNS(=O)(=O)c3cccc(C4CN(C)Cc5c(Cl)cc(Cl)cc54)c3)c2)C1` (stereo not shown) [Example 230, N1,N2-bis(2-(2-(2-(2-(3-(6,8-dichloro-2-methyl-1,2,3,4-tetrahydroisoquinolin-4-yl)phenylsulfonamido)ethoxy)ethoxy)ethoxy)-ethyl)phthalamide], at rat NHE-3, the “rat NHE-3 Average pIC50” value was greater than 7. In data set [2], this compound displayed an area under the curve (AUC) of less than 5 ng·h/mL and a Cmax of less than 5 ng/mL.
Consider `CN1Cc2c(Cl)cc(Cl)cc2C(c2ccc(S(=O)(=O)NCCOCCOCCNC(=O)c3ccc(C(=O)NCCOCCOCCNS(=O)(=O)c4ccc(C5CN(C)Cc6c(Cl)cc(Cl)cc65)cc4)cc3)cc2)C1` (stereo not shown) [Example 231, N1,N4-bis(2-(2-(2-(4-(6,8-dichloro-2-methyl-1,2,3,4-tetrahydroisoquinolin-4-yl)phenylsulfonamido)ethoxy)ethoxy)ethyl)terephthalamide], for which the “rat NHE-3 Average pIC50” value on rat NHE-3 is listed as less than 5.0. In data set [2], this compound registered an AUC of less than 3 ng·h/mL and a Cmax of less than 2.5 ng/mL.
In the case of `CN1Cc2c(Cl)cc(Cl)cc2C(c2cccc(S(=O)(=O)NCCOCCOCCOCCNC(=O)c3cc(C(=O)NCCOCCOCCOCCNS(=O)(=O)c4cccc(C5CN(C)Cc6c(Cl)cc(Cl)cc65)c4)cc(C(=O)NCCOCCOCCOCCNS(=O)(=O)c4cccc(C5CN(C)Cc6c(Cl)cc(Cl)cc65)c4)c3)c2)C1` (stereo not shown) [Example 215, N1,N3,N5-tris(2-(2-(2-(2-(3-(6,8-dichloro-2-methyl-1,2,3,4-tetrahydroisoquinolin-4-yl)phenylsulfonamido)ethoxy)ethoxy)ethoxy)ethyl)benzene-1,3,5-tricarboxamide], at rat NHE-3 (setting [3]), the “rat NHE-3 Average pIC50” value was greater than 7. In data set [2], this compound came in with an AUC of less than 2 ng·h/mL and a maximum concentration (Cmax) of less than 2 ng/mL.
For `CN1Cc2c(Cl)cc(Cl)cc2C(c2ccc(S(=O)(=O)NCCOCCOCCNC(=O)C(O)C(O)C(=O)NCCOCCOCCNS(=O)(=O)c3ccc(C4CN(C)Cc5c(Cl)cc(Cl)cc54)cc3)cc2)C1` (stereo not shown) [Example 205, N1,N4-bis(2-(2-(2-(4-(6,8-dichloro-2-methyl-1,2,3,4-tetrahydroisoquinolin-4-yl)phenylsulfonamido)ethoxy)ethoxy)ethyl)-2,3-dihydroxysuccinamide], in that order: greater than 7, less than 2 ng·h/mL and less than 2 ng/mL.
The like results for `C/C(=C\c1cc(F)c(Oc2ccc(S(=O)(=O)NCCOCCOCCOCCOCCOCCOCCN)cc2)c(F)c1)C(=O)N=C(N)N` [Example 211, (E)-3-(4-(4-(N-(20-amino-3,6,9,12,15,18-hexaoxaicosyl)sulfamoyl)phenoxy)-3,5-difluorophenyl)-N-(diaminomethylene)-2-methylacrylamide] were, in that order, 6 to 7, less than 3 ng·h/mL and less than 2.3 ng/mL.

By Papp A→B is commonly meant the apparent permeability from the apical to the basolateral side of a cell layer. Low readings indicate poor permeation, high ones ready permeation. As usually defined, the AUC is the area under the concentration-time curve, a measure of exposure. A higher AUC goes with high exposure. What is called Cmax is the highest concentration seen after dosing.
